Non-standard residues stand in square brackets, D forms with d. Residues, ends and D or L forms follow the SMILES beside them. No end group written: not given here. *: point of attachment. FITC = O=C1OC2(c3ccc(O)cc3Oc3cc(O)ccc32)c2ccc(NC(=S)*)cc21; Hyp = O=C(O)[C@@H]1C[C@@H](O)CN1; Cbz = O=C(OCc1ccccc1)*; Ahx = NCCCCCC(=O)O
Experiments:
Panc-1 cells = assay: Confocal fluorescence imaging of FITC labeled peptides in cells; type: cell-based; settings: confocal microscope, 10 μM FITC labeled peptides, Panc-1 cells
Protocol: To examine whether PRTC could permeate into pancreatic cancer cells, we synthesized fluorescein isothiocyanate (FITC) labeled PRTC, PRTC-m, PRTC-v, PRTC-r (PRTC without RRRRK) as well as TAT (a widely used cell penetrating peptide, as a positive control).
Figure 3 Identification of the permeability of PRTC in Panc-1 cells. (A) Entry of FITC- labeled peptides into Panc-1 cells tested by flow cytometry. FITC-TAT is the positive control. Measurements were performed in triplicate. (B) Quantification of cellular uptake of Panc-1 cells treated with different concentrations of FITC-PRTC. (C) Confocal microscope images of Panc-1 cells treated with 10 μM FITC labeled peptides. Scale bars, 10 μm. (D) Confocal microscope images of Panc-1 cells treated with different dosages of FITC-PRTC. Scale bars, 10 μm.

[1] = molecular target: T1, endogenous CREPT protein in Panc-1 cells (Homo sapiens, UniProt Q9NQG5); assay: Western blot of endogenous CREPT (degradation); type: cell-based; settings: 24 h incubation with 10 μM PRTC
T1 construct: endogenous protein level of CREPT in Panc-1, AsPc-1 and MIA-PaCa-2 cells; endogenous in cells; host or cells: Panc-1, AsPc-1, MIA PaCa-2
T1 sequence (Q9NQG5 1-326): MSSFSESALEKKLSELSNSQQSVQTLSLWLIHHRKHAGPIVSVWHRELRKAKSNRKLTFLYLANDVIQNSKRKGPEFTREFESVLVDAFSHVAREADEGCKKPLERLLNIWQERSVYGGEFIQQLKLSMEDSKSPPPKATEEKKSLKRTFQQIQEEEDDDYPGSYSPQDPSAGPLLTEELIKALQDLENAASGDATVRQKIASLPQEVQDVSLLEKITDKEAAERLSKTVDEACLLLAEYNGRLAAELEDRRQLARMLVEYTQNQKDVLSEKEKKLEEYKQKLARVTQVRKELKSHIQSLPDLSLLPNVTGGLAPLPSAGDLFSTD
Protocol: (§1) For exogenous immunoprecipitation assays, HEK293T cells were plated in 60 mm dishes and then transfected with the indicated plasmids. After 24 h, cells were harvested using RIPA buffer (50 mM Tris-HCl pH 8.0, 2 mM EDTA pH 8.0, 150 mM NaCl, 1% NP-40, 0.5% sodium deoxycholate, 0.1% SDS) with mixed protease inhibitors. Cell lysates were incubated with 2 μg of the indicated antibodies and 30 μL of protein A/G-Sepharose beads at 4 °C overnight. Beads were eluted five times with lysis buffer (50 mM Tris-HCl pH 7.6, 1 mM EDTA pH 8.0, 165 mM NaCl, 0.5% NP-40), and thereafter, a western blot assay was performed to analyze the association by using the indicated antibodies. Western blot was performed as previously reported. Anti-β-actin and anti-Flag antibodies were purchased from Sigma. Anti-Myc antibody was purchased from Santa Cruz Biotechnology. Antibody against CREPT was produced in the laboratory.
To address whether PRTC could induce CREPT degradation, we examined the endogenous protein level of CREPT in Panc-1, AsPc-1 and MIA-PaCa-2 cells in the presence of different dosages of PRTC. […] Consistently, treatment with PRTC led to decreases in CREPT protein at different times (Figure 5B, S3A). […] To further visualize the degradation process, we stained the endogenous CREPT protein with an antibody against CREPT in the cells treated with FITC-labeled PRTC.
Figure 5 PRTC induces the ubiquitination and proteasome- dependent degradation of the endogenous CREPT protein. (A) Immunoblot of CREPT following 24 h incubation with different dosages of PRTC or PRTC-m in Panc-1 cells. (B) Immunoblot of CREPT exposed to 10 μM PRTC or PRTC-m for different times in Panc-1 cells. (C) Western blot analysis of CREPT following 24 h incubation with 10 μM PTRC in Panc-1 cells. MG132 is an inhibitor of proteasome activity. (D) Immunofluorescence visualization of Panc-1 cells after treatment with PRTC for 24 h. Cells were stained with anti-CREPT antibody. Scale bars, 20 μm.

Flag-CREPT = molecular target: T2, Flag-CREPT (Homo sapiens, UniProt Q9NQG5); assay: GST pull-down; type: binding; settings: GST-tagged proteins purified from mammalian (HEK293T) cells
T2 construct: expressed in transfected cells; host or cells: HEK293T
T2 sequence (Q9NQG5 1-326): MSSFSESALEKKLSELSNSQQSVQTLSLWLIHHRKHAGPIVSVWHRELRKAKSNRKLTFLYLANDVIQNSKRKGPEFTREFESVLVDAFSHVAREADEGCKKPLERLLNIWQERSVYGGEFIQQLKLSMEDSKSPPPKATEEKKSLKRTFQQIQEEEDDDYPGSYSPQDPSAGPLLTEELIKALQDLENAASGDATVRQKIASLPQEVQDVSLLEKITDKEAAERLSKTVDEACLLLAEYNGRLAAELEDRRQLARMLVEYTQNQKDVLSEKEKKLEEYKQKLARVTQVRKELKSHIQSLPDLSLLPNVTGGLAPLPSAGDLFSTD
Protocol: HEK293T cells were plated in 100 mm dishes and then transfected with the indicated plasmids. After 24 h, cells were harvested using RIPA buffer with mixed protease inhibitors. Cell lysates were incubated with 30 μL of GST-tagged Sepharose beads and 10 μg of purified proteins from either E. coli or HEK293T cells at 4 °C overnight. Beads were eluted five times with lysis buffer. Western blot was performed using an antibody against GST (Cell Signaling Technology) to analyze the association.

Myc-CREPT and Myc-CCT = assay: Exogenous IP experiment in HEK293T cells; type: binding; settings: GST-tagged CREPT ligand
Protocol: as §1

localization of FITC labeled peptides in the cells (Panc-1 cells)	Compound	other results
very weak localization	CC[C@H](C)[C@H](NC(=O)CCCCCNC(=S)Nc1ccc2c(c1)C(=O)OC21c2ccc(O)cc2Oc2cc(O)ccc21)C(=O)N[C@@H](Cc1ccc(O)cc1)C(=O)N1C[C@H](O)C[C@H]1C(=O)N[C@@H](C)C(=O)N[C@@H](CC(C)C)C(=O)NCCCCCC(=O)N[C@@H](CCCCN)C(=O)N[C@@H](CC(=O)O)C(=O)N[C@H](C(=O)N[C@@H](CC(C)C)C(=O)N[C@@H](CO)C(=O)N[C@@H](CCC(=O)O)C(=O)N[C@@H](CCCCN)C(=O)N[C@@H](CCC(=O)O)C(=O)N[C@@H](CCCCN)C(=O)N[C@@H](CCCCN)C(=O)N[C@@H](CC(C)C)C(=O)N[C@@H](CCC(=O)O)C(=O)N[C@@H](CCC(=O)O)C(=O)N[C@@H](Cc1ccc(O)cc1)C(=O)N[C@@H](CCCCN)C(=O)N[C@@H](CCC(N)=O)C(=O)N[C@@H](CCCCN)C(=O)N[C@@H](CC(C)C)C(=O)N[C@@H](C)C(=O)N[C@@H](CCCNC(=N)N)C(=O)N[C@H](C(=O)O)C(C)C)C(C)C [FITC-PRTC-r] ({FITC-Ahx}-IY[Hyp]AL[Ahx]KDVLSEKEKKLEEYKQKLARV-OH)	
	CC(C)C[C@@H](C=O)NC(=O)[C@H](CC(C)C)NC(=O)[C@H](CC(C)C)NC(=O)OCc1ccccc1 [MG132, reference compound] (Cbz-Leu-Leu-Leu-aldehyde)	effect on PRTC-induced CREPT degradation [1]: completely abolished
strong localization	FITC-AHX-IYP (OH) AL-AHX-KDVPSEKEKKPEEYKQKPARV-RRRRK [FITC-PRTC-m, FITC labeled PRTC-m]	
strong localization	FITC-AHX-KDVLSEKEKKLEEYKQKLARV-RRRRK [FITC-PRTC-v, FITC labeled PRTC-v]	
	GST-CL-m: GST protein tagged with CL-m (KDVPSEKEKKPEEYKQKPARV; also: GST tag, end not given here)	pull down of Flag-CREPT in vitro (Flag-CREPT): lost the ability to associate; binding in exogenous IP (Myc-CREPT and Myc-CCT): failed to bind
